Measurements: PubChem BioAssay (NCI)
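Growth conditions: 96-well plates. Treatment: test compound, 48 hours, 5 concentrations. Analysis: linear interpolation between bracketing concentrations; unreached endpoints set to highest concentration. GI50 marks 50% less growth. TGI: total growth inhibition.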

Tests used:
Assay in all cases: NCI anticancer screen, dose series, 48 h
CCRF-CEM leukemia = system: CCRF-CEM leukemia
OVCAR-8 ovarian = system: OVCAR-8 ovarian
SK-MEL-5 melanoma = system: SK-MEL-5 melanoma
A498 renal = system: A498 renal
SF-268 CNS = system: SF-268 CNS
MDA-N = system: MDA-N
SK-OV-3 ovarian = system: SK-OV-3 ovarian
SF-295 CNS = system: SF-295 CNS
LOX IMVI melanoma = system: LOX IMVI melanoma

| SMILES | TGI (CCRF-CEM leukemia) [µM] | TGI (OVCAR-8 ovarian) [µM] | TGI (SK-MEL-5 melanoma) [µM] | TGI (A498 renal) [µM] | TGI (SF-268 CNS) [µM] | TGI (MDA-N) [µM] | TGI (SK-OV-3 ovarian) [µM] | TGI (SF-295 CNS) [µM] | TGI (LOX IMVI melanoma) [µM] | GI50 (CCRF-CEM leukemia) [µM] | GI50 (OVCAR-8 ovarian) [µM] | GI50 (SK-MEL-5 melanoma) [µM] | GI50 (A498 renal) [µM] | GI50 (SK-OV-3 ovarian) [µM] | GI50 (LOX IMVI melanoma) [µM] | GI50 (SF-295 CNS) [µM] | GI50 (SF-268 CNS) [µM] |
| --- | --- | --- | --- | --- | --- | --- | --- | --- | --- | --- | --- | --- | --- | --- | --- | --- | --- |
| O=C1N[C@H]2c3c(Cl)sc(Cl)c3/C(=N/O)[C@H]2O1 | > 100 | > 100 | > 100 | > 100 | > 100 | > 100 | > 100 | – | – | – | – | – | – | – | – | – | – |
| Cc1nc2c(=S)[nH]ncc2[nH]1 | > 100 | > 100 | > 100 | > 100 | – | > 100 | > 100 | > 100 | > 100 | – | – | – | – | – | – | – | – |
| CCOC(=O)CCCn1nnc(C(=O)OCC)c1C(=O)OCC | > 100 | > 100 | > 100 | – | > 100 | > 100 | – | > 100 | > 100 | – | – | – | – | – | – | – | – |
| CO/C(=N\N=C\c1cc(OC)ccc1OC)c1ccncc1 | > 10 | > 10 | > 10 | > 10 | > 10 | > 10 | > 10 | > 10 | > 10 | – | – | – | – | – | – | – | – |
| O=S(=O)(c1ccc(Br)cc1)n1c2ccc(Br)cc2c2nc3ccccc3nc21 | > 100 | > 100 | > 100 | > 100 | > 100 | > 100 | > 100 | > 100 | > 100 | – | – | – | – | – | – | – | – |
| CCC(C)[C@@H](NCc1ccccc1)[C@H](OCc1ccccc1)[C@@H]1COC(C)(C)O1 (some centres undefined) | 60.9 | 45.4 | 29 | – | 68.6 | > 100 | > 100 | 60.2 | 38 | – | – | – | – | – | – | – | – |
| COc1cc(/C=C2/SC(c3ccccc3)N(c3ccc(NC(C)=O)cc3)C2=O)cc(OC)c1OC (centres undefined) | – | > 100 | > 100 | > 100 | > 100 | > 100 | > 100 | > 100 | > 100 | – | – | – | – | – | – | – | – |
| COc1c2cc([N+](=O)[O-])cc1CNC(=O)CN1CCOCCOCCN(CCOCCOCC1)CC(=O)NC2 | > 100 | > 100 | > 100 | > 100 | > 100 | > 100 | > 100 | > 100 | > 100 | – | – | – | – | – | – | – | – |
| COCOc1ccc(C(=O)C(C)c2ccc(OCOC)cc2OCOC)c(O)c1 (centres undefined) | > 100 | > 100 | > 100 | > 100 | > 100 | > 100 | > 100 | – | – | – | – | – | – | – | – | – | – |
| O=C(CP(c1ccccc1)c1ccccc1)c1cccc(C(=O)CP(c2ccccc2)c2ccccc2)c1 | > 100 | > 100 | > 100 | – | > 100 | > 100 | > 100 | > 100 | – | – | – | – | – | – | – | – | – |
| CCOC(=O)c1cnc(-n2[nH]c(C)c(CCO)c2=O)[nH]c1=O | > 100 | > 100 | > 100 | – | > 100 | > 100 | > 100 | > 100 | > 100 | – | – | – | – | – | – | – | – |
| COC(=O)c1cn(CCCC(=O)O)nn1 | > 100 | > 100 | > 100 | – | > 100 | > 100 | – | > 100 | > 100 | – | – | – | – | – | – | – | – |
| O=C1CSC2(CC(/C=C/c3ccccc3)=NN2c2cccc(S(=O)(=O)O)c2)N1c1nc2ccccc2s1 (centres undefined) | 49.5 | 35.8 | > 100 | 64.3 | – | > 100 | – | – | 23.7 | – | – | – | – | – | – | – | – |
| COc1cc2c(cc1OCCCN1CCN(CCCOc3cc4c(cc3OC)C(=O)N3CCC[C@H]3C=N4)CC1)C=CC(C)(C)O2 | – | 3.85 | 2.53 | 2.37 | – | – | 2.99 | – | 2.09 | 0.288 | 1.38 | 1.27 | 1.15 | 1.61 | 0.755 | – | – |
| C1CC2=C(C1)[Se]C(=C1Sc3nsnc3S1)[Se]2 | > 100 | > 100 | > 100 | – | > 100 | 62 | > 100 | > 100 | > 100 | – | – | – | – | – | – | – | – |
| Nc1nc2c(=O)c3ccccc3sc2s1 | > 100 | 50.7 | > 100 | > 100 | > 100 | > 100 | – | > 100 | > 100 | – | – | – | – | – | – | – | – |
| O=C(CSCC(=O)N/N=C/c1cc(I)cc(I)c1O)N/N=C/c1cc(I)cc(I)c1O | – | 59.8 | 24.8 | 27.9 | 22.6 | – | 35 | 47.1 | – | – | – | – | – | – | – | – | – |
| C=C(C)[C@@]1(O)O[C@H]2C[C@@]3(C)OC(=CC3=O)/C(C)=C\[C@@H]3OC(=O)[C@@]1(C)[C@H]32 | 24.1 | > 100 | 30.5 | – | 88.2 | – | > 100 | 66.9 | 29.2 | – | – | – | – | – | – | – | – |
| Clc1ccc2c(SCC3CO3)c3ccccc3nc2c1 (centres undefined) | 6.98 | > 100 | 9.07 | 33.9 | > 100 | – | 53.4 | 42.1 | > 100 | – | – | – | – | – | – | – | – |
| Cc1ccc(C2CC(=O)CC(c3ccc(C)cc3)C23C(=O)NC(=O)NC3=O)cc1 (centres undefined) | > 100 | > 100 | > 100 | – | > 100 | > 100 | – | > 100 | > 100 | – | – | – | – | – | – | – | – |
| FC(F)(F)c1ccc(-c2nc(-c3nc4cc(Cl)c(Cl)cc4[nH]3)c3ccccn23)cc1 | > 100 | > 100 | > 100 | 79.1 | > 100 | – | – | > 100 | – | > 100 | 6.61 | 4.2 | 4.58 | – | – | 3.9 | 4.19 |
| CCOC(=O)c1ccc(N=NN(C)C(=O)C(C)N)cc1 (centres undefined) | > 100 | > 100 | > 100 | – | > 100 | > 100 | – | > 100 | > 100 | – | – | – | – | – | – | – | – |
| CNC(=O)c1ccccc1-[s+]1c2ccccc2c(=O)n1C (centres undefined) | > 100 | > 100 | > 100 | > 100 | > 100 | > 100 | – | > 100 | > 100 | – | – | – | – | – | – | – | – |
| O=C(COc1ccc(OCC(=O)N2C(=O)CC(=O)N(c3ccccc3)C2=S)cc1)N1C(=O)CC(=O)N(c2ccccc2)C1=S | – | – | – | > 100 | > 100 | > 100 | > 100 | > 100 | – | – | – | – | – | – | – | – | – |
| c1csc(-c2ccc(-c3ccc(-c4ccc(-c5cccs5)s4)s3)s2)c1 | 53.8 | > 100 | > 100 | > 100 | > 100 | – | > 100 | > 100 | – | – | – | – | – | – | – | – | – |
